According to EPA's ToxValDB 9.5 (doi:10.2903/j.efsa.2010.1554):
Values after ≈ are worked out from the molar mass of the structure shown.

What was measured:
Anas platyrhynchos = settings: for LD50: oral, mortality
Apis mellifera = settings: acute; duration: 48 hours; dermal; mortality
Canidae = settings: chronic; duration: 1 years; oral; Dog Other; organ weight
Colinus virginianus = settings: acute, oral, mortality
Daphnia magna = settings: chronic/long-term; duration: 21 days; reproduction
Rattus norvegicus = settings: for NOAEL: reproduction developmental

COc1cc(OC)nc(NC(=O)NS(=O)(=O)c2c(-c3nnn(C)n3)cnn2C)n1 [Azimsulfuron]
LD50 (Anas platyrhynchos; acute, unspecified): > 2250 mg/kg-day | NOEL (Anas platyrhynchos; reproductive): 172 mg/kg-day | LD50 (Anas platyrhynchos; short-term, feed): > 2040 mg/kg-day | LD50 (Apis mellifera): > 25 µg/piece | NOAEL (Canidae): 17.9 mg/kg-day | LD50 (Colinus virginianus; diet): > 3150 mg/kg-day | LD50 (Colinus virginianus): > 2250 mg/kg-day | NOEC (Daphnia magna): 5.4 mg/L | LC50 (Oncorhynchus mykiss; acute, duration: 96 hours, mortality): 154 µg/mL (≈ 363 µM) | NOEC (Oncorhynchus mykiss; chronic/long-term, duration: 90 days, time to hatch): 6.3 mg/L | LD50 (Rattus norvegicus; acute, oral, mortality): > 5000 mg/kg-day | NOAEL (Rattus norvegicus; organ weight): 9.6 mg/kg-day | NOAEL (Rattus norvegicus; reproduction): 76.6 mg/kg-day | LC50 (Tagia sp.; acute, duration: 14 days, mortality): > 1000 mg/kg | NOEC (Tagia sp.; chronic/long-term, duration: 56 days, reproduction): 12.5 mg/kg
